Here are results for 14 compounds from patent US20160046618A1, “Cyclopropyl Fused Thiazin-2-Amine Compounds as Beta-Secretase Inhibitors and Methods of Use” (AMGEN INC., priority 2014, published 2016).

Broadly, the IC50 is the concentration at which inhibition is half-maximal.

Test [1] addresses human recombinant BACE1 (Homo sapiens (Human), UniProt P56817). The test can be described thus: In vitro enzymatic BACE1 FRET assay. Type of test: biochemical. The following applies: read-out: IC50 IP (μM) BACE1 enzyme. On the procedure:
(§1) These recombinant proteins were further purified using Ni-NTA affinity chromatography (Qiagen). […] This assay is effectively started by the addition of FRET substrate (50 nM) and the combination is incubated for one hour. The FRET assay is terminated by addition of Tris buffer, which raises the pH to neutrality, and the fluorescence is determined. The FRET substrate is a peptide with commercially available fluorophore and quencher, on opposite sides of the BACE cleavage site. Proteolytic cleavage of the FRET substrate releases quenching of fluorescence (excitation 488 nm and emission 590 nm).

In test [2] the target is human recombinant BACE2 (Homo sapiens (Human), UniProt Q9Y5Z0). Kind of test: In vitro enzymatic BACE2 FRET assay. Conditions: read-out: IC50 IP (μM) BACE2 enzyme. The class given is biochemical. On the procedure: as §1
Test [3] relates to Aβ40 in conditioned medium of cells stably expressing Amyloid Precursor Protein (APP). Kind of test: In vitro BACE-1 cell-based assay (Aβ40 sandwich ELISA). The following applies: read-out: IC50 IP (μM) BACE1 cell. On the procedure: In Vitro BACE-1 Cell-Based Assay
The cell-based assay measures inhibition or reduction of Aβ40 in conditioned medium of test compound treated cells expressing amyloid precursor protein. Cells stably expressing Amyloid Precursor Protein (APP) were plated at a density of 40K cells/well in 96 well plates (Costar). The cells were cultivated for 24 hours at 37° C. and 5% CO2 in DMEM supplemented with 10% FBS. The test compounds were then added to cells in 10-point dose response concentrations with the starting concentration being either 100 μM or 10 μM. The compounds were diluted from stock solutions in DMSO and the final DMSO concentration of the test compounds on cells was 0.1%. After 24 h of incubation with the test compounds the supernatant conditioned media was collected and the Aβ40 levels were determined using a sandwich ELISA. The IC50 of the compound was calculated from the percent of control or percent inhibition of Aβ40 as a function of the concentration of the test compound.
The sandwich ELISA to detect Aβ40 was performed in 96 well microtiter plates, which were pre-treated with goat anti-rabbit IgG (Pierce). The capture and detecting antibody pair that were used to detect Aβ40 from cell supernatants were affinity purified pAb40 (Biosource) and biotinylated 6E10 (Signet Labs Inc.), respectively. The optimal concentration for the pAb40 antibody was 3 μg/ml in Superblock/TBS (Pierce) that was supplemented with 0.05% Tween 20 (Sigma). […] Cellular supernatants were incubated with the capture antibody for 3 h at 4° C., followed by 3 wash steps in TBS-tween (0.05%). The detecting antibody incubation was for 2 h at 4° C., again followed by the wash steps as described previously. The final readout of the ELISA is Time-Resolved Fluorescence (counts per minute) using Delfia reagents Streptavidin-Europium and Enhancement solutions (Perkin Elmer) and the Victor 2 multilabel counter (Perkin Elmer).
In general terms: An ELISA detects its analyte on a solid surface through an enzyme-linked reagent.

Test [4] deals with Recombinant Cat D (Homo sapiens (Human), UniProt P07339). Kind of test: In vitro enzymatic Cathepsin D (Cat D) FRET assay. Type of test: biochemical. The following applies: read-out: IC50 IP (μM) CatD. On the procedure:
In Vitro Enzymatic Cathepsin D (Cat D) FRET (Fluorescence Resonance Energy Transfer) Assay
Recombinant Cat D was expressed in CHO cells. The assay buffer for CathepsinD is 0.05 M citrate pH 3.5, 10% DMSO final, 5 mM CHAPS. […] The assays are effectively started by the addition of different FRET substrates (20 nM for Cat D) and the combination is incubated for one hour. The FRET assay is terminated with by addition of Tris buffer, which raises the pH to neutrality, and the fluorescence is determined. The FRET substrate is a peptide with commercially available fluorophore and quencher, on opposite sides of the BACE cleavage site. The Cat D substrate peptide sequence is based on sequence #1 of Table 1 from Gulnik et al. FEBS Letters v413 p 379-384 1997. Proteolytic cleavage of the FRET substrate releases quenching of fluorescence (Cat D excitation 500 nm and emission 580 nm).

The structures appear in SMILES notation. Like-named read-outs stand apart in the source and are kept apart here. Some results are limits rather than exact numbers.

Recombinant Cat D, sequence (P07339 65-412): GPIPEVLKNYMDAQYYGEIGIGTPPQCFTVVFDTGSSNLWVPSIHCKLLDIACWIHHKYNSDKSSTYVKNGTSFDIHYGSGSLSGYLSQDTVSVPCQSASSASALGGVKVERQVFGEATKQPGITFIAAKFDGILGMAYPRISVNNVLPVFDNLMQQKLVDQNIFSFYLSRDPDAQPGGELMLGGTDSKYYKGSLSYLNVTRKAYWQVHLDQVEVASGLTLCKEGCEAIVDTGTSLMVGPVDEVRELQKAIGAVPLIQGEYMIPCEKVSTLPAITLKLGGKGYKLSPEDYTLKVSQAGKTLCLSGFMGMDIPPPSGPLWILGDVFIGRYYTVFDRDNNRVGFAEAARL
human recombinant BACE2, sequence (Q9Y5Z0 63-518): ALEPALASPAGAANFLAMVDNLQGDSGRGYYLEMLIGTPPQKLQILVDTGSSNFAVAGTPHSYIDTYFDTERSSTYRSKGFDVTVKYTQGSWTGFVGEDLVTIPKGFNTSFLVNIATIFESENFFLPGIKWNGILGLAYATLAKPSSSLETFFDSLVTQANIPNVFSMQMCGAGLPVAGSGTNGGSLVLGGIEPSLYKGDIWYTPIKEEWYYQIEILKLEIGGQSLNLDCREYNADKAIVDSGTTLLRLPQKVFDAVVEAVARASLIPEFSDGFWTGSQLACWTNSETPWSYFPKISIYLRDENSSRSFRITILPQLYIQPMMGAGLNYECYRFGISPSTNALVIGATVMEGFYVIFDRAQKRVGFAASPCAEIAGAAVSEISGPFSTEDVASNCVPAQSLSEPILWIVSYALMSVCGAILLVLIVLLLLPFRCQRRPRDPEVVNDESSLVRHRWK
human recombinant BACE1, sequence (P56817 46-501): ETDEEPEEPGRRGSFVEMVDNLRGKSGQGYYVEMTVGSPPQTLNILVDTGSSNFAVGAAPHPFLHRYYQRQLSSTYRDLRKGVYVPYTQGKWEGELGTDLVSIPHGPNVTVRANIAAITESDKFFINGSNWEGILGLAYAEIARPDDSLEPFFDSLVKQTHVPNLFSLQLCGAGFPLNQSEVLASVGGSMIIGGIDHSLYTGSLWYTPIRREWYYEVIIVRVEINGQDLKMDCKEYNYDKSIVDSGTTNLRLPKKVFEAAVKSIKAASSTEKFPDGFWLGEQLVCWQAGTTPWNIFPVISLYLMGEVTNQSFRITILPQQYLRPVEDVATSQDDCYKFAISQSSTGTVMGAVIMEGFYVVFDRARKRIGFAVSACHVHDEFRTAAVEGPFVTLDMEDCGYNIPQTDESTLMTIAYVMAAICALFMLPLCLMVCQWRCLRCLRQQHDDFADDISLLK

For `C[C@]1(c2cc(Nc3nccc4cc(C#N)cnc34)cnc2F)N=C(N)S[C@@]2(CF)C[C@H]21` [Example 604, 8-((5-((1S,5S,6S)-3-amino-1-(fluoromethyl)-5-methyl-2-thia-4-azabicyclo[4.1.0]hept-3-en-5-yl)-6-fluoro-3-pyridinyl)amino)-1,7-naphthyridine-3-carbonitrile], the IC50 was 0.00624 µM in test [1], 0.00378 µM in test [2], 0.00933 µM in test [3] and 571 µM in test [4].
As to `C[C@]1(c2cc(Nc3nccc4nc(OCc5ncccn5)cnc34)cc(F)c2F)N=C(N)S[C@@]2(C(F)F)C[C@@H]12` [Example 884, N-(3-((1S,5S,6S)-3-amino-1-(difluoromethyl)-5-methyl-2-thia-4-azabicyclo[4.1.0]hept-3-en-5-yl)-4,5-difluorophenyl)-2-(2-pyrimidinylmethoxy)pyrido[3,4-b]pyrazin-5-amine], the IC50 in test [1] is 0.00427 µM; in test [2], 0.13 µM; in test [3], 0.0119 µM; in test [4] it was above 400 µM.
On to `C[C@]1(c2cc(NC(=O)c3ccc(OCC(F)(F)F)cn3)ccc2F)N=C(N)S[C@@]2(C(F)F)C[C@@H]12` [Example 696, N-(3-((1S,5S,6S)-3-amino-1-(difluoromethyl)-5-methyl-2-thia-4-azabicyclo[4.1.0]hept-3-en-5-yl)-4-fluorophenyl)-5-(2,2,2-trifluoroethoxy)-2-pyridinecarboxamide], for which the IC50 in test [1] was determined as 0.0062 µM; in test [2], 0.324 µM; in test [3], 0.0707 µM; in test [4], 846 µM.
For `COC[C@]12C[C@H]1[C@@](C)(c1cc(NC(=O)c3cnc(OCC4CCC4)cn3)cc(F)c1F)N=C(N)S2` [Example 1020, N-(3-((1S,5S,6S)-3-amino-1-(methoxymethyl)-5-methyl-2-thia-4-azabicyclo[4.1.0]hept-3-en-5-yl)-4,5-difluorophenyl)-5-(cyclobutylmethoxy)pyrazine-2-carboxamide] the same measures were 0.00118 µM, 0.0998 µM, 0.0248 µM and 783 µM.
Turning to `C#CCOc1cnc(C(=O)Nc2cc(F)c(F)c([C@@]3(C)N=C(N)S[C@@]4(C(F)F)C[C@@H]34)c2)c(C)c1` [Example 685, N-(3-((1S,5S,6S)-3-amino-1-(difluoromethyl)-5-methyl-2-thia-4-azabicyclo[4.1.0]hept-3-en-5-yl)-4,5-difluorophenyl)-3-methyl-5-(2-propyn-1-yloxy)-2-pyridinecarboxamide], the half-inhibitory concentration (IC50) amounted to 0.00112 µM in test [1], 0.018 µM in test [2], 0.0197 µM in test [3] and 463 µM in test [4].
For `[2H]C([2H])([2H])OC[C@]12C[C@H]1[C@@](C)(c1cc(Nc3ncnc4cc(Cl)cnc34)cnc1F)N=C(N)S2` [Example 852, N-(5-((1S,5S,6S)-3-amino-5-methyl-1-(((~2~H_3_)methyloxy)methyl)-2-thia-4-azabicyclo[4.1.0]hept-3-en-5yl)-6-fluoro-3-pyridinyl)-7-chloropyrido[3,2-d]pyrimidin-4-amine] the same measures were 0.0127 µM, 0.00758 µM, 0.0101 µM and 1680 µM.
For `COC[C@]12C[C@H]1[C@@](C)(c1cc(NC(=O)c3cnc(OCC4CCO4)cn3)ccc1F)N=C(N)S2` (stereo partly drawn) [Example 1058, N-(3-((1S,5S,6S)-3-amino-1-(methoxymethyl)-5-methyl-2-thia-4-azabicyclo[4.1.0]hept-3-en-5-yl)-4-fluorophenyl)-5-(oxetan-2-ylmethoxy)pyrazine-2-carboxamide] the same measures were above 0.016 µM, 0.498 µM, 0.01 µM and above 400 µM.
For `Cc1noc(COc2cnc(C(=O)Nc3cc(C)c(F)c([C@@]4(C)N=C(N)S[C@@]5(C(F)F)C[C@@H]45)c3)cn2)n1` [Example 1075, N-(3-((1S,5S,6S)-3-amino-1-(difluoromethyl)-5-methyl-2-thia-4-azabicyclo[4.1.0]hept-3-en-5-yl)-4-fluoro-5-methylphenyl)-5-((3-methyl-1,2,4-oxadiazol-5-yl)methoxy)pyrazine-2-carboxamide] the same measures were 0.00152 µM, 0.198 µM, 0.00153 µM and 1250 µM.
For the compound `C#CCCOc1cnc(C(=O)Nc2ccc(F)c([C@@]3(C)N=C(N)S[C@@]4(COC)C[C@H]43)c2)cn1` [Example 1048, N-(3-((1S,5S,6S)-3-amino-1-(methoxymethyl)-5-methyl-2-thia-4-azabicyclo[4.1.0]hept-3-en-5-yl)-4-fluorophenyl)-5-(3-butyn-1-yloxy)-2-pyrazinecarboxamide], the IC50 in test [1] worked out at 0.0078 µM; in test [2], 0.152 µM; in test [3], 0.0095 µM.
For the compound `COC[C@]12C[C@H]1[C@@](C)(c1cc(Nc3nccc4cc(Cl)cnc34)cc(F)c1F)N=C(N)S2` [Example 24, N-(3-((1S,5S,6S)-3-amino-1-(methoxymethyl)-5-methyl-2-thia-4-azabicyclo[4.1.0]hept-3-en-5-yl)-4,5-difluorophenyl)-3-chloro-1,7-naphthyridin-8-amine], the values for the IC50 in test [1] (BACE1 FRET enzyme assay), in test [3] (BACE1 cell-based assay) and in test [4] (Cathepsin D FRET enzyme assay) were 0.00188 µM, 0.0191 µM and 189 µM, respectively.
On to `N#Cc1cnc2c(Nc3cc(F)c(F)c([C@@]4(CF)N=C(N)S[C@@H]5C[C@@H]54)c3)nccc2c1` [Example 27, 8-((3-((1R,5S,6R)-3-amino-5-(fluoromethyl)-2-thia-4-azabicyclo[4.1.0]hept-3-en-5-yl)-4,5-difluorophenyl)amino)-1,7-naphthyridine-3-carbonitrile], for which the IC50 in test [1] (BACE1 FRET enzyme assay) came to 0.0235 µM; in test [3] (BACE1 cell-based assay) it was 0.013 µM; in test [4] (Cathepsin D FRET enzyme assay) it was 33.5 µM.
As for `COc1cnc(C(=O)Nc2cc(F)c(F)c([C@@]3(CF)N=C(N)S[C@H]4C[C@H]43)c2)c(C)n1` [Example 17, N-(3-((1S,5S,6S)-3-amino-5-(fluoromethyl)-2-thia-4-azabicyclo[4.1.0]hept-3-en-5-yl)-4,5-difluorophenyl)-5-methoxy-3-methyl-2-pyrazinecarboxamide], the results for the concentration for half-maximal inhibition (IC50) in test [1] (BACE1 FRET enzyme assay), in test [3] (BACE1 cell-based assay) and in test [4] (Cathepsin D FRET enzyme assay) were 0.026 µM, 0.0548 µM and 863 µM, respectively.
For `CCOC(=O)[C@]12C[C@H]1[C@@](C)(c1cc(Nc3nccc4cc(Cl)cnc34)cc(F)c1F)N=C(N)S2` [Example 25, (1S,5S,6S)-ethyl 3-amino-5-(5-((3-chloro-1,7-naphthyridin-8-yl)amino)-2,3-difluorophenyl)-5-methyl-2-thia-4-azabicyclo[4.1.0]hept-3-ene-1-carboxylate] the same measures were 0.0025 µM, 0.571 µM and 48.7 µM.
In the case of `COc1cnc(C(=O)Nc2cc(F)c(F)c([C@@]3(C)N=C(N)S[C@H]4C[C@H]43)c2)cn1` [Example 7, N-(3-((1S,5S,6S)-3-amino-5-methyl-2-thia-4-azabicyclo[4.1.0]hept-3-en-5-yl)-4,5-difluorophenyl)-5-methoxy-2-pyrazinecarboxamide], the IC50 in test [1] (BACE1 FRET enzyme assay) turned out to be 0.0141 µM; in test [3] (BACE1 cell-based assay), 0.00636 µM; in test [4] (Cathepsin D FRET enzyme assay) it was 719 µM.
